# Source: US20020133846A1, “Method for protecting plants” (priority 1996, published 2002)
# Where two headings read alike, the source gives them in different places.
# Assays:
# [1] = test system: Peronospora parasitica isolate Emwa; assay: Action against Peronospora parasitica in Arabidopsis overexpressing NIM1 (lines 6E, 7C) and wild-type Ws; format: in vivo; settings: for inhibition at 500 µg/mL: fosetyl 0.5 g/l; for inhibition at 5000 µg/mL: fosetyl 5.0 g/l
# Text: The plant lines used in this example (6E and 7C) were generated from transformation of wild-type Arabidopsis thaliana plants (ecotype Ws) with the BamHI-HindIII NIM1 genomic fragment (SEQ ID NO:1—bases 1249-5655), as described above in Example 21. The fungicides metalaxyl, fosetyl, and copper hydroxide, formulated as 25%, 80%, and 70% active ingredient (ai), respectively, with a wettable powder carrier, were applied as fine mist to leaves of three week-old transgenic Ws plants constitutively expressing the NIM1 gene. The wettable powder alone was applied as a control. Three days later, plants were inoculated with a Peronospora parasitica isolate Emwa conidial suspension (1-2×10^5 spores/ml), as described in Delaney et al. (1995). Following inoculation, plants were covered to maintain high humidity and were placed in a Percival growth chamber at 17° C. with a 14-hr day/10-hr night cycle (Uknes et al., 1993). Tissue was harvested 8 days after inoculation.
# Fungal infection progression was followed for 12 days by viewing under a dissecting microscope to score development of conidiophores (Delaney, et al. (1994); Dietrich, et al. (1994)). Lactophenoltrypan blue staining of individual leaves was carried out to observe fungal growth within leaf tissue. Fungal growth was quantified using a rRNA fungal probe obtained by PCR according to White et al. (1990; PCR Protocols: A guide to Methods and Application, 315-322) using primers NS1 and NS2 and P. parasitica EmWa DNA as templates. RNA was purified from frozen tissue by phenol/chloroform extraction following lithium chloride precipitation (Lagrimini et al, 1987: PNAS, 84: 7542-7546). Samples (7.5 μg) were separated by electrophoresis through formaldehyde agarose gels and blotted to nylon membranes (Hybond-N+, Amersham) as described by Ausbel et al. (1987). Hybridizations and washing were according to Church and Gilbert (1984, PNAS, 81: 1991-1995). Relative amounts of the transcript were determined using a Phosphor Imager (Molecular Dynamics, Sunnyvale, Calif.) following manufacturers instructions. Sample loading was normalized by probing stripped filter blots with the constitutively expressed b-tubulin Arabidopsis cDNA.
# [2] = test system: Peronospora parasitica Emwa; assay: Action against Peronospora parasitica Emwa in Arabidopsis thaliana (Ws), rRNA fungal probe; format: in vivo
# [3] = test system: Colletotrichum lagenarium; assay: Action against Colletotrichum lagenarium on Cucumis sativus L., soil application; format: in vivo
# [4] = test system: Colletotrichum lagenarium; assay: Action against Colletotrichum lagenarium on Cucumis sativus L., foliar application; format: in vivo
# Erysiphe graminis = assay: Action against Erysiphe graminis on barley (residual-protective / systemic)
# Method: Residual-protective action: Barley plants about 8 cm in height were sprayed to drip point with an aqueous spray mixture (max. 0.02 % active ingredient) and were dusted 3 to 4 days later with conidia of the fungus. The infected plants were stood in a greenhouse at 22°. Fungus infestation was generally evaluated 10 days after infection.
# Systemic action: Barley plants about 8 cm in height were watered with an aqueous spray mixture (max. 0.002 % active ingredient, based on the volume of the soil). […] The plants were dusted with conidia of the fungus 3 to 4 days later. The infected plants were stood in a greenhouse at 22°. Fungus infestation was generally evaluated 10 days after infection.
# Cercospora nicotianae = assay: Action against Cercospora nicotianae on tobacco plants; format: in vivo
# Pyricularia oryzae [5] = format: in vivo
# Puccinia recondita = assay: Action against Puccinia recondita in wheat
# Method: 7-day-old wheat plants were sprayed to drip point with a spray mixture prepared from a formulated active ingredient, or combination of active ingredients. After 4 days, the treated plants were infected with a conidia suspension of the fungus, and the treated plants were subsequently incubated for 2 days at a relative atmospheric humidity of 90-100% and 20 C. 10 days post-infection, the fungus infestation was assessed.
# Pyricularia oryzae [6] = format: in vivo; remark: listed apart in the source
# [7] = Hyaloperonospora parasitica, in Arabidopsis thaliana, Table 37, wt Ws, read-out: Fungal Growth Inhibition % O (observed)
# [8] = Hyaloperonospora parasitica, in Arabidopsis thaliana, wild-type Ws (Table 38), read-out: Fungal Growth Inhibition % O (observed)
smiles,measurement,setting,value
"CCO[PH](=O)O [fosetyl, ethyl hydrogen phosphonate]",inhibition at 50 µg/mL,"[1]; Hyaloperonospora parasitica, in Arabidopsis thaliana, Table 37, wt Ws, fosetyl 0.05 g/l, read-out: Fungal Growth Inhibition % O (observed)",0%
same,inhibition at 500 µg/mL,[1]; [7],2%
same,inhibition at 5000 µg/mL,[1]; [7],7%
same,inhibition at 500 µg/mL,[1]; [8],2%
same,inhibition at 5000 µg/mL,[1]; [8],7%
same,inhibition at 40 µg/mL,"[2]; Hyaloperonospora parasitica, in Arabidopsis thaliana, Table 31, Ws, fosetyl alone 0.04 g/l, read-out: Fungal Growth Inhibition % O (observed)",0%
same,inhibition at 200 µg/mL,"[2]; Hyaloperonospora parasitica, in Arabidopsis thaliana, Table 31, Ws, fosetyl alone 0.2 g/l, read-out: Fungal Growth Inhibition % O (observed)",10%
same,inhibition at 1000 µg/mL,"[2]; Hyaloperonospora parasitica, in Arabidopsis thaliana, Table 31, Ws, fosetyl alone 1.0 g/l, read-out: Fungal Growth Inhibition % O (observed)",40%
"CO/C=C(/C(=O)OC)c1ccccc1Oc1cc(Oc2ccccc2C#N)ncn1 [azoxystrobin, methyl-(E)-2-{2-[6-(2-cyanophenoxy)pyrimidin-4-yloxy]phenyl}-3-methoxyacrylate]",% action O (observed),"[3]; Table 5, comp. II alone 0.2 ppm",0%
same,% action O (observed),"[3]; Table 5, comp. II alone 0.6 ppm",9%
same,% action O (observed),"[3]; Table 5, comp. II alone 2 ppm",28%
same,% action O (observed),"[3]; Table 5, comp. II alone 6 ppm",66%
same,% action O (observed),"[3]; Table 8, comp. II alone 0.02 ppm",1%
same,% action O (observed),"[3]; Table 8, comp. II alone 0.06 ppm",5%
same,% action O (observed),"[3]; Table 8, comp. II alone 0.6 ppm",27%
same,% action O (observed),"[3]; Table 8, comp. II alone 2 ppm",61%
same,% action O (observed),"[3]; Table 8, comp. II alone 6 ppm",93%
same,% action O (observed),"[4]; Table 4, comp. II alone 0.06 ppm",5%
same,% action O (observed),"[4]; Table 4, comp. II alone 0.2 ppm",9%
same,% action O (observed),"[4]; Table 4, comp. II alone 0.6 ppm",12%
same,% action O (observed),"[4]; Table 4, comp. II alone 6 ppm",17%
same,% action O (observed),"[4]; Table 7, comp. II alone 2 ppm",18%
same,% action O (observed),"[4]; Table 7, comp. II alone 6 ppm",75%
"CO/N=C(/C(=O)OC)c1ccccc1COc1ccccc1C [cresoxime methyl, methyl-(E)-2-methoximino-2-[μ-(o-tolyloxy)-o-tolyl]acetate]",% action O (observed),"[4]; Table 6, comp. II alone 2 ppm",0%
same,% action O (observed),"[4]; Table 6, comp. II alone 20 ppm",41%
"CC1(C)CCC(Cc2ccc(Cl)cc2)C1(O)Cn1cncn1 (stereo not shown) [metconazol, 5-(4-chlorobenzyl)-2,2-dimethyl-1-(1H-1,2,4-triazol-1-ylmethyl)-cyclopentanol]",% action O (observed),"Erysiphe graminis; Table 1, comp. II alone 0.6 ppm",10%
same,% action O (observed),"Erysiphe graminis; Table 1, comp. II alone 2 ppm",40%
same,% action O (observed),"Erysiphe graminis; Table 1, comp. II alone 6 ppm",51%
same,% action O (observed),"Erysiphe graminis; Table 1, comp. II alone 20 ppm",65%
same,% action O (observed),"Erysiphe graminis; Table 3, comp. II alone 6 ppm",17%
same,% action O (observed),"Erysiphe graminis; Table 3, comp. II alone 20 ppm",33%
same,% action O (observed),"Erysiphe graminis; Table 3, comp. II alone 60 ppm",50%
"CC1COC(Cn2cncn2)(c2ccc(Oc3ccc(Cl)cc3)cc2Cl)O1 (stereo not shown) [difenoconazole, 1-{2-[2-chloro-4-(4-chlorophenoxy)phenyl]-4-methyl-1,3-dioxolan-2-ylmethy 1)-1H-1,2,4-triazole]",% action O (observed),"Cercospora nicotianae; Table 12, comp. II alone 0.6 kg a.i. per ha",3%
same,% action O (observed),"Cercospora nicotianae; Table 12, comp. II alone 2 kg a.i. per ha",23%
same,% action O (observed),"Cercospora nicotianae; Table 12, comp. II alone 6 kg a.i. per ha",32%
"CC(C)(C)C(O)(CCc1ccc(Cl)cc1)Cn1cncn1 (stereo not shown) [tebuconazol, μ-[2-(4-chlorophenyl)ethyl]-μ-(1,1-dimethylethyl)-1H-1,2,4-triazole-1-ethanol]",% action O (observed),"Cercospora nicotianae; Table 9, comp. II alone 2 ppm",0%
same,% action O (observed),"Cercospora nicotianae; Table 9, comp. II alone 6 ppm",0%
"CCC1(C(=O)NC(C)c2ccc(Cl)cc2)C(C)C1(Cl)Cl [KTU 3616, (1R,3S/1S,3R)-2,2-dichloro-N-[(R)-1-(4-chlorophenyl)ethyl]-1-ethyl-3-methylcyclopropanecarboxamide]",% action O (observed),"Pyricularia oryzae [5]; Table 13, comp. II alone 0.02 ppm",0%
same,% action O (observed),"Pyricularia oryzae [5]; Table 13, comp. II alone 0.06 ppm",28%
same,% action O (observed),"Pyricularia oryzae [5]; Table 13, comp. II alone 0.2 ppm",47%
same,% action O (observed),"Pyricularia oryzae [5]; Table 13, comp. II alone 0.6 ppm",79%
same,% action O (observed),"Pyricularia oryzae [5]; Table 13, comp. II alone 2 ppm",83%
same,% action O (observed),"Pyricularia oryzae [5]; Table 13, comp. II alone 6 ppm",91%
"CC(C1CC1)C(O)(Cn1cncn1)c1ccc(Cl)cc1 (stereo not shown) [cyproconazol, μ-(4-chlorophenyl)-μ-(1-cyclopropylethyl)-1H-1,2,4-triazole-1-ethanol]",% action O (observed),"Cercospora nicotianae; Table 10, comp. II alone 2 ppm",0%
same,% action O (observed),"Cercospora nicotianae; Table 10, comp. II alone 6 ppm",0%
"CC(Cc1ccc(C(C)(C)C)cc1)CN1CCCCC1 (stereo not shown) [fenpropidine, 1-[3-(4-tert-butylphenyl)-2-methylpropyl]-piperidine]",% action O (observed),"Puccinia recondita; Table 20, comp. II alone 20 kg a.i. per ha",40%
same,% action O (observed),"Puccinia recondita; Table 20, comp. II alone 60 kg a.i. per ha",60%
"CC(Cc1ccc(C(C)(C)C)cc1)CN1C[C@@H](C)O[C@@H](C)C1 (relative stereo) [fenpropimorph, cis-4-[3-(4-tert-butylphenyl)-2-methylpropyl]-2,6-dimethylmorpholine]",% action O (observed),"Cercospora nicotianae; Table 11, comp. II alone 2 kg a.i. per ha",13%
same,% action O (observed),"Cercospora nicotianae; Table 11, comp. II alone 6 kg a.i. per ha",23%
same,% action O (observed),"Cercospora nicotianae; Table 11, comp. II alone 10 kg a.i. per ha",42%
"Cc1cccc2sc3nncn3c12 [tricyclazole, 5-methyl-1,2,4-triazolo[3,4-b][1,3]benzothiazole]",% action O (observed),"Pyricularia oryzae [6]; Table 15, comp. II alone 0.1 ppm",32%
same,% action O (observed),"Pyricularia oryzae [6]; Table 15, comp. II alone 0.25 ppm",48%
same,% action O (observed),"Pyricularia oryzae [6]; Table 15, comp. II alone 0.5 ppm",71%
same,% action O (observed),"Pyricularia oryzae [6]; Table 15, comp. II alone 1 ppm",74%
"[Cu+2].[OH-].[OH-] [Cu(OH)2, copper hydroxide]",Fungal Growth Inhibition % O (observed),"[1]; Cu(OH)2 0.02 g/l, wild-type Ws (Table 39)",0%
same,Fungal Growth Inhibition % O (observed),"[1]; Cu(OH)2 0.02 g/l, wild-type Ws (Table 40)",0%
same,Fungal Growth Inhibition % O (observed),"[1]; Cu(OH)2 0.2 g/l, wild-type Ws (Table 39)",0%
same,Fungal Growth Inhibition % O (observed),"[1]; Cu(OH)2 0.2 g/l, wild-type Ws (Table 40)",0%
same,Fungal Growth Inhibition % O (observed),"[1]; Cu(OH)2 2.0 g/l, wild-type Ws (Table 39)",0%
same,Fungal Growth Inhibition % O (observed),"[1]; Cu(OH)2 2.0 g/l, wild-type Ws (Table 40)",0%
same,Fungal Growth Inhibition % O (observed),"[2]; Table 32, Ws, Cu(OH)2 alone 0.01 g/l",0%
